Key:
[1] = biological target: T1, rat NaP2b (SLC34A2) (Rattus norvegicus, UniProt Q9JJ09); assay: NaP2b-mediated Pi transport (33P uptake) in transfected HEK293 cells, rat NaP2b; assay type: cell-based; conditions: Structure (V) examples, Table 2; rat NaP2b, HEK293; read-out: pIC50 Range (converted)
T1 construct: host or cells: HEK293
T1 sequence (Q9JJ09 1-695): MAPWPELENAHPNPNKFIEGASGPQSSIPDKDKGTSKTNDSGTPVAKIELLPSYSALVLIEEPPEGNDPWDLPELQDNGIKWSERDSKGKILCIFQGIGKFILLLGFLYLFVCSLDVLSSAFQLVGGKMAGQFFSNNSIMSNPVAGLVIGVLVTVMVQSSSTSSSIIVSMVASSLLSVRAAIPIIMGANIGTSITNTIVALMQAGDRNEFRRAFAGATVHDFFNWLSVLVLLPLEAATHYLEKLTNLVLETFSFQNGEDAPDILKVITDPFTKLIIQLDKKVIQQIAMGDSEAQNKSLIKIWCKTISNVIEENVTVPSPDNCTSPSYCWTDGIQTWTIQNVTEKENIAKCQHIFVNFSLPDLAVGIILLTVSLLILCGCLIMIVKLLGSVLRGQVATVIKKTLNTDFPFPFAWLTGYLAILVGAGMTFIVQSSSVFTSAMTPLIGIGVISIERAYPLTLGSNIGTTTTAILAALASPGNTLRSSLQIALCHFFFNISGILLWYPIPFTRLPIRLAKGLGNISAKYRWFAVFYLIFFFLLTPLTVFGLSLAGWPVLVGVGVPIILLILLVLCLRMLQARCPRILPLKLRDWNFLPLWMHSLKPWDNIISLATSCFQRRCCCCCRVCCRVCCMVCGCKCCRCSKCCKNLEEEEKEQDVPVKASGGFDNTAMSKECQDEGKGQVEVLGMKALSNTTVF
Outline: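 HEK293 cells transiently transfected with NaP2b cDNA, endogenous PiT transport suppressed; ^33P-phosphate uptake measured in sodium vs choline buffer (100 uM KH2PO4, pH 7.4) for 3–30 min at room temperature. Twelve concentrations, 0.1 nM–30 uM, in duplicate; uptake by scintillation counting, pIC50 calculated.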

[2] = system: Uptake of Phosphorus from the Intestine; assay: In vivo bolus phosphorus challenge; design: species or system rat; conditions: Sprague-Dawley rats on low-phosphorus diet; oral Drug Dose 30, 15 min before phosphate bolus; serum 30 min post bolus
Protocol: By pretreating animals with a low phosphorus diet followed by the subsequent dosing of a phosphorus bolus, serum phosphorus levels were monitored after 30 minutes as a surrogate for intestinal phosphorus absorption. […] The in vivo bolus phosphorus challenge model used here mimics this model in rats.
Male, 7-week-old Sprague-Dawley rats (Charles-River laboratories international, Hollister, Calif.) were allowed to acclimatize for a minimum of 3 days before switching to a synthetic low-phosphorus diet (TD.85010, Harlan Teklad, Madison, Wis.) which contains 0.1% phosphorus and 0.6% calcium. At day 5, testing compounds or vehicle alone (as indicated) were orally administered at the indicated dose in a volume of 5 ml/kg, followed by a bolus gavage of monobasic sodium phosphate (1 mmol in 1 ml) 15 min after compound dosing. Serum was collected via retroorbital bleeding 30 min post phosphate bolus and phosphate levels were determined utilizing an ACE ALERA blood chemistry analyzer (Alfa Wassermann Diagnostic Technologies, West Caldwell, N.J.).
The extent of inhibition by test compounds on the elevation of serum phosphate levels in response to the bolus of phosphorus is shown in Table 12 (data are expressed as % Inhibition, with 6-10 animals per data point). The differences between groups were evaluated by one-way analysis of variance with Dunnett's post hoc tests.

| IC50 [1] | SMILES | % Inhibition of Serum P elevation [2] |
| --- | --- | --- |
| 100 to 794 nM | COCCNC(=O)CCSCc1cccc(C(=O)Nc2ccc(N3CCCCC3)cc2C(=O)N/N=C/c2ccc(Cl)c(C(F)(F)F)c2)c1 [Ex. 49, (E)-N-(2-(2-(4-chloro-3-(trifluoromethyl)benzylidene)hydrazinecarbonyl)-4-(piperidin-1-yl)phenyl)-3-((3-(2-methoxyethylamino)-3-oxopropylthio)methyl)benzamide] | – |
| 100 to 794 nM | O=C(NCCN1CCOCC1)c1cccc(C(=O)Nc2ccc(N3CCCCC3)cc2C(=O)N/N=C/c2ccc(Cl)c(C(F)(F)F)c2)c1 [Ex. 53, (E)-N^1-(2-(2-(4-chloro-3-(trifluoromethyl)benzylidene)hydrazinecarbonyl)-4-(piperidin-1-yl)phenyl)-N3-(2-morpholinoethyl)isophthalamide] | – |
| – | CN(CCN1CCOCC1)C(=O)c1cccc(C(=O)Nc2ccc(N3CCCCC3)cc2-c2cc(C(=O)NCc3cccc(C(F)(F)F)c3)ccn2)c1 [Example 80, N1-Methyl-N1-(2-morpholinoethyl)-N3-(4-(piperidin-1-yl)-2-(4-((3-(trifluoromethyl)benzyl)carbamoyl)pyridin-2-yl)phenyl)isophthalamide] | 20-30% |

Reference: US20140023611A1 (priority 2010, published 2014)
